Laboratory results taken from US20240158370A1, “CK1 alpha AND DUAL CK1 alpha / GSPT1 DEGRADING COMPOUNDS” (Innovo Therapeutics, Inc., priority 2022, published 2024).

What was measured:
Assay type in all cases: cell-based
GSPT1 [1] = target: T1, GSPT1 (Homo sapiens, UniProt P15170+Q96SW2); experiment: HiBiT degradation assay, GSPT1, Procedure A; design: HiBit-GSPT1 KI HEK293(LgBit) Cells; host or cells: HEK293(LgBit) knock-in cells; details: six hours incubation
In short: (§1)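 DC50 and Ymin (% remaining) were derived by four-parameter fitting of luminescence data. The data come from a six-hour, 37° C compound exposure of cells in DMEM/10% FBS over a ten-point range, 10 μM to 0.005 μM, followed by Nano-Glo HiBiT lytic detection.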

CK1α = target: T2, CK1α (Homo sapiens, UniProt P48729+Q96SW2); experiment: HiBiT degradation assay, CK1α, Procedure A
T2 construct: CSNK1A1-HiBit KI HEK293(LgBit) Cells; host or cells: HEK293(LgBit) knock-in cells
T2 sequence (P48729 whole entry): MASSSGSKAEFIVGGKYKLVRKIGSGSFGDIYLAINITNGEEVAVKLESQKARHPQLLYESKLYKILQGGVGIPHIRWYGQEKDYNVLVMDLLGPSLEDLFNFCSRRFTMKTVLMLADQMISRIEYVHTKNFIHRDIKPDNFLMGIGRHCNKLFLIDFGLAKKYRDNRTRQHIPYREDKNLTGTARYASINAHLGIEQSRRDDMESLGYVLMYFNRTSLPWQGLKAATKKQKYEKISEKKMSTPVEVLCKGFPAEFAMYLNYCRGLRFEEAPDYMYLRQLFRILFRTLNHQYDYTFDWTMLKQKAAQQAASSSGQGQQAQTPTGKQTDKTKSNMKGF
T2 sequence (Q96SW2 whole entry): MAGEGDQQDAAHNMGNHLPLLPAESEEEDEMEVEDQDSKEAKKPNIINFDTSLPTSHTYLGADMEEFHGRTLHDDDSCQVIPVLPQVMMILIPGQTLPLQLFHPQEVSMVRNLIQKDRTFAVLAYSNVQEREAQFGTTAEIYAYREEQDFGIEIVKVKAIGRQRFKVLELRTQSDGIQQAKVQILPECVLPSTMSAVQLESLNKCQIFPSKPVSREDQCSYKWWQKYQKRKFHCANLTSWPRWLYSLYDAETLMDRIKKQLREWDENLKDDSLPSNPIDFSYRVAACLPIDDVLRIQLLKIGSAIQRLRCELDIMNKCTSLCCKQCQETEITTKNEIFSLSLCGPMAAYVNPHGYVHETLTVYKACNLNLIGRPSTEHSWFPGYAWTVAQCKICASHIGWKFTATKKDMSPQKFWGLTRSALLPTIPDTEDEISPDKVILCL
T2 sequence (Q16531 whole entry partner): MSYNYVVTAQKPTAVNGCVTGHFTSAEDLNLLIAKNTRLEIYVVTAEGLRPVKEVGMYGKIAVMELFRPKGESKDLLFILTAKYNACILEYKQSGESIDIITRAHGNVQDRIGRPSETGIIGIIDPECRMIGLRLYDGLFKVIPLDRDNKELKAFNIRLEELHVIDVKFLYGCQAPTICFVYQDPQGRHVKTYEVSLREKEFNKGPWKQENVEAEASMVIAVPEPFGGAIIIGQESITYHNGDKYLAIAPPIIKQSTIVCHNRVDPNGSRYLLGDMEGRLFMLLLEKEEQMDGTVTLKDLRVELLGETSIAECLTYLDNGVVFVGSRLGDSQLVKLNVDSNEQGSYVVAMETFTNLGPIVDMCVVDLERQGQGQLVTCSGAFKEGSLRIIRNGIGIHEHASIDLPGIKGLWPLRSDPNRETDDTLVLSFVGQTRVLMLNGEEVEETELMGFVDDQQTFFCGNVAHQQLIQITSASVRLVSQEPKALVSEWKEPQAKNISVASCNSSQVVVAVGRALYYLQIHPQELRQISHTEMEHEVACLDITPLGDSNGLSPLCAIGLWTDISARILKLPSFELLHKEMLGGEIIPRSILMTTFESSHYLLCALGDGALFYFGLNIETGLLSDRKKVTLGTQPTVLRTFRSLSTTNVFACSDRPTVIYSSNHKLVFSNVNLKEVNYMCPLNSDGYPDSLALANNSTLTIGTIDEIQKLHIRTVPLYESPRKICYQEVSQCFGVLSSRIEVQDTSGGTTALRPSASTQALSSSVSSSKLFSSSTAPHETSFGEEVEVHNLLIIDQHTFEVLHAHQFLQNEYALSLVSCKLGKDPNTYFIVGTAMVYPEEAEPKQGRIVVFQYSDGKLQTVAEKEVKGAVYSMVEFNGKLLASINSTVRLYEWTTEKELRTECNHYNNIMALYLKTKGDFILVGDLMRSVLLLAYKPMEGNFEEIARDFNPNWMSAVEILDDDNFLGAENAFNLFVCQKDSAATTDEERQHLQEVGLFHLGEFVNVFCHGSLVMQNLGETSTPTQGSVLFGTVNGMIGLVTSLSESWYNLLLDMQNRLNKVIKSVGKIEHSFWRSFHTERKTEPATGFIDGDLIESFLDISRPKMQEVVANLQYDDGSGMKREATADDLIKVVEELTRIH
In short: as §1

Z-138 cells = experiment: Z-138 Proliferation Assay (Cell Titer-Glo); details: 72 hours; for Ymin (%): % remaining (percent of DMSO control); for EC50: Homo sapiens, Cell Titer-Glo, 4-parameter curve fit
Description: Z-138 Proliferation Assay
Z-138 cells were cultured in IMDM Medium supplemented with 10% heat in-activated fetal bovine serum and 1% Penicillin-Streptomycin.
10 mM stocks of compound were made from fresh powder. DMSO was added to solid compound so that the final concentration was 10 mM. Compounds were vortexed and allowed to sit for 5 minutes to ensure complete solubility. Solvated compound was aliquoted into 1 ml Eppendorf tubes and stored in a −20° C. freezer.
Z-138 cells were maintained in culture using standard cell culturing techniques.
Cells were maintained at a density of 0.8×10^6 cells/ml.
Re-constitute cell titer-glo reagent according to manufacturer's protocol.
Z-138 cells were removed from culture and cell viability and density were determined using a CellDrop™ Automated Cell Counter with Tryphan blue stain according to manufacturer's protocols. Cells were centrifuged and resuspended using fresh media to a cell density of 0.1×10^6 cells/ml. […] 40 μl of cell suspension was added to the wells of a 384 well tissue culture plate (4,000 cells/well final). Upon completing the addition of the cells to the plate, the plates were centrifuged for 30 seconds at 300 rpms to help the cells settle and to bring air bubbles to the top of the wells. Air bubbles were popped using a pipette tip.
10-point dose response curves were performed using a D300e Digital Dispenser. The highest concentration of compound used in the assay was 10,000 nM. 1:2 dilutions were performed over a 10-point range with the final DMSO concentration being 0.1%. The cells were cultured for 72 hours in the presence of compound.
After 72 hours, the cell plates were removed from the incubator and allowed to equilibrate to room temperature (about 15 minutes). 20 μl of cell titer-glo reagent was added to each well of the 384 well plate. Incubated the plate for 30 minutes in the dark. After 30 minutes, ensured that there were no air bubbles in the plate (popped bubbles with pipette tip if necessary) and analyzed plate using a luminometer.
EC50 curves were generated using Prism Graph Pad. In brief, POCs (percent of control, compound/DMSO control×100) were plotted against the compound concentrations (log scale). EC50 curves were generated using a 4-parameter curve fit.

GSPT1 [2] = target: T1, GSPT1; experiment: HiBiT degradation assay, GSPT1, Procedure B (Molt 4_hGSPT1_HiBIT cells); design: Molt 4_hGSPT1_HiBIT N-terminus tagged cells were generated using CRISPR technology; endogenous in cells; host or cells: Molt 4 cells, CRISPR-edited; details: six hours
In short: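 CRISPR N-terminal HiBiT-tagged Molt 4 cells at 1×10^6 cells/ml were treated 6 h at 37° C with compounds (10-point, 10 μM to 0.005 μM, 0.1% DMSO). Remaining HiBiT-GSPT1 was read by lytic luminescence; DC50 and Ymin (% remaining) from a 4-parameter fit.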

T1 sequence (P15170 whole entry): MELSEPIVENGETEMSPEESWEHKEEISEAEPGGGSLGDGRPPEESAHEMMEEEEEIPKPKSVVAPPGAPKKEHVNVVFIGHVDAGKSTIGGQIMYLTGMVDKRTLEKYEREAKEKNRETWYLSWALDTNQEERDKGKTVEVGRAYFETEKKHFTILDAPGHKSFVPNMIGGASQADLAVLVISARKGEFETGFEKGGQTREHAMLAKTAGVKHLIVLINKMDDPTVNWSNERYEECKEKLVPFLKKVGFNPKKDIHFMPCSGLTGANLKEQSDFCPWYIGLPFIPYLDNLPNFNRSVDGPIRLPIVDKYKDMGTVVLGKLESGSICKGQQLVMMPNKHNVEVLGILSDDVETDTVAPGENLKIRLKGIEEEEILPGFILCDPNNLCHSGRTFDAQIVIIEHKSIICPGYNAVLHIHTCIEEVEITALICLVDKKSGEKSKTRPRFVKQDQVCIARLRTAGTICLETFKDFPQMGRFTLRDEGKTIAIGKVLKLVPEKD
T1 sequence (Q96SW2 whole entry): as the sequence (Q96SW2 whole entry) above
T1 sequence (Q16531 whole entry partner): as the sequence (Q16531 whole entry partner) above

| Compound | DC50 (GSPT1 [1]) [nM] | GSPT1 Ymin (GSPT1 [1]) | CK1α Ymin (CK1α; six hours incubation) | DC50 (CK1α; six hours incubation) [nM] | Ymin (%) (Z-138 cells) | EC50 (Z-138 cells) [nM] | CK1α Ymin (CK1α; six hours) | DC50 (CK1α; six hours) [nM] | DC50 (GSPT1 [2]) [nM] | GSPT1 Ymin (GSPT1 [2]) |
| --- | --- | --- | --- | --- | --- | --- | --- | --- | --- | --- |
| O=C1CCC(N2Cc3cc(-c4nccn4-c4ccccc4)ccc3C2=O)C(=O)N1 (stereo not drawn) [Example 7, 3-(1-Oxo-5-(1-phenyl-1H-imidazol-2-yl)isoindolin-2-yl)piperidine-2,6-dione] | < 25 | E (E = >25-75% remaining) | C (C = 0-10% remaining) | < 25 | D (0-10% remaining) | < 10 | – | – | – | – |
| Cn1c(C2CC2)nc(-c2ccc3c(c2)CN(C2CCC(=O)NC2=O)C3=O)c1-c1ccccc1 (stereo not drawn) [Example 12, 3-(5-(2-cyclopropyl-1-methyl-5-phenyl-1H-imidazol-4-yl)-1-oxoisoindolin-2-yl)piperidine-2,6-dione] | ≥ 25 | E (E = >25-75% remaining) | C (C = 0-10% remaining) | < 25 | D (0-10% remaining) | < 10 | – | – | – | – |
| Cn1nc(-c2ccc3c(c2)CN(C2CCC(=O)NC2=O)C3=O)cc1-c1ccc(F)cc1 (stereo not drawn) [Example 488, 3-(5-(5-(4-fluorophenyl)-1-methyl-1H-pyrazol-3-yl)-1-oxoisoindolin-2-yl)piperidine-2,6-dione] | – | – | – | – | E (>10-25% remaining) | 10 to 100 | D (D = >10- 25% remaining) | < 25 | – | – |
| Cn1cc(-c2ccc3c(c2)CN(C2CCC(=O)NC2=O)C3=O)nc1C12CC3CC(CC(C3)C1)C2 (stereo not drawn) [Example 711, 3-[5-[2-(1-adamantyl)-1-methyl-imidazol-4-yl]-1-oxo-isoindolin-2-yl]piperidine-2,6-dione] | – | – | – | – | – | – | E (E = >25-75% remaining) | < 25 | ≥ 25 | F (F = >75-100% remaining) |
| Cc1nc(-c2ccc3c(c2)CN(C2CCC(=O)NC2=O)C3=O)nn1-c1ccccc1 (stereo not drawn) [Example 712, 3-(5-(5-methyl-1-phenyl-1H-1,2,4-triazol-3-yl)-1-oxoisoindolin-2-yl) piperidine-2,6-dione] | – | – | – | – | – | – | D (D = >10- 25% remaining) | < 25 | < 25 | F (F = >75-100% remaining) |
| Cn1nc(-c2ccc3c(c2)CN(C2CCC(=O)NC2=O)C3=O)nc1N1CCCC1 (stereo not drawn) [Example 713, 3-(5-(1-methyl-5-(pyrrolidin-1-yl)-1H-1,2,4-triazol-3-yl)-1-oxoisoindolin-2-yl)piperidine-2,6-dione] | – | – | – | – | – | – | D (D = >10- 25% remaining) | < 25 | < 25 | F (F = >75-100% remaining) |
| Cn1cc(-c2ccc3c(c2)CN(C2CCC(=O)NC2=O)C3=O)nc1C1(C)CCCCC1 (stereo not drawn) [Example 714, 3-(5-(1-methyl-2-(1-methylcyclohexyl)-1H-imidazol-4-yl)-1-oxoisoindolin-2-yl)piperidine-2,6-dione] | – | – | – | – | – | – | E (E = >25-75% remaining) | < 25 | < 25 | F (F = >75-100% remaining) |
| Cn1cc(-c2ccc3c(c2)CN(C2CCC(=O)NC2=O)C3=O)nc1[C@H]1CC[C@H](C)CC1 (stereo partly drawn) [Example 715, 3-(5-(1-Methyl-2-((1r,4r)-4-methylcyclohexyl)-1H-imidazol-4-yl)-1-oxoisoindolin-2-yl)piperidine-2,6-dione] | – | – | – | – | – | – | D (D = >10- 25% remaining) | < 25 | < 25 | E (E = >25-75% remaining) |
| Cn1cc(-c2ccc3c(c2)CN(C2CCC(=O)NC2=O)C3=O)nc1[C@H]1[C@@H]2COC[C@@H]21 (stereo partly drawn) [Example 716, 3-(5-(2-((1R,5S,6s)-3-oxabicyclo[3.1.0]hexan-6-yl)-1-methyl-1H-imidazol-4-yl)-1-oxoisoindolin-2-yl)piperidine-2,6-dione] | – | – | – | – | – | – | E (E = >25-75% remaining) | < 25 | ≥ 25 | F (F = >75-100% remaining) |
| Cn1cc(-c2ccc3c(c2)CN(C2CCC(=O)NC2=O)C3=O)nc1C12CCC(CC1)CC2 (stereo not drawn) [Example 718, 3-(5-(2-(bicyclo[2.2.2]octan-1-yl)-1-methyl-1H-imidazol-4-yl)-1-oxoisoindolin-2-yl)piperidine-2,6-dione] | – | – | – | – | – | – | E (E = >25-75% remaining) | < 25 | ≥ 25 | F (F = >75-100% remaining) |
| Cn1cc(-c2ccc3c(c2)CN(C2CCC(=O)NC2=O)C3=O)nc1C12CCN(CC1)CC2 (stereo not drawn) [Example 719, 3-(5-(1-methyl-2-(quinuclidin-4-yl)-1H-imidazol-4-yl)-1-oxoisoindolin-2-yl)piperidine-2,6-dione] | – | – | – | – | – | – | E (E = >25-75% remaining) | ≥ 25 | ≥ 25 | F (F = >75-100% remaining) |
| CCc1nc(-c2ccc3c(c2)CN(C2CCC(=O)NC2=O)C3=O)c(-c2ccccc2)o1 (stereo not drawn) [Example 720, 3-(5-(2-ethyl-5-phenyloxazol-4-yl)-1-oxoisoindolin-2-yl) piperidine-2,6-dione] | – | – | – | – | – | – | C (C = 0-10% remaining) | < 25 | < 25 | E (E = >25-75% remaining) |
| Cn1cc(-c2ccc3c(c2)CN(C2CCC(=O)NC2=O)C3=O)nc1-c1ccc(N2CCNCC2)cc1 (stereo not drawn) [Example 721] | – | – | – | – | – | – | D (D = >10- 25% remaining) | ≥ 25 | ≥ 25 | F (F = >75-100% remaining) |
| Cn1cc(-c2ccc3c(c2)CN(C2CCC(=O)NC2=O)C3=O)nc1-c1ccc2c(c1)CC(=O)N2 (stereo not drawn) [Example 722] | – | – | – | – | – | – | D (D = >10- 25% remaining) | ≥ 25 | < 25 | F (F = >75-100% remaining) |
| CC(=O)Nc1ccc(-c2nc(-c3ccc4c(c3)CN(C3CCC(=O)NC3=O)C4=O)cn2C)cc1 (stereo not drawn) [Example 723] | – | – | – | – | – | – | C (C = 0-10% remaining) | < 25 | ≥ 25 | F (F = >75-100% remaining) |
| Cn1cc(-c2ccc3c(c2)CN(C2CCC(=O)NC2=O)C3=O)nc1-c1cccc(F)c1F (stereo not drawn) [Example 724] | – | – | – | – | – | – | C (C = 0-10% remaining) | < 25 | ≥ 25 | F (F = >75-100% remaining) |
| Cn1cc(-c2ccc3c(c2)CN(C2CCC(=O)NC2=O)C3=O)nc1-c1cc(F)ccc1Cl (stereo not drawn) [Example 725] | – | – | – | – | – | – | C (C = 0-10% remaining) | < 25 | ≥ 25 | F (F = >75-100% remaining) |
| Cn1c(C2CCC2)nc(-c2ccc3c(c2)CN(C2CCC(=O)NC2=O)C3=O)c1-c1ccccc1 (stereo not drawn) [Example 727, 3-(5-(2-cyclobutyl-1-methyl-5-phenyl-1H-imidazol-4-yl)-1-oxoisoindolin-2-yl)piperidine-2,6-dione] | – | – | – | – | – | – | C (C = 0-10% remaining) | < 25 | ≥ 25 | F (F = >75-100% remaining) |
| O=C1CCC(N2Cc3cc(-c4nc(C5CC5)oc4-c4ccccc4)ccc3C2=O)C(=O)N1 (stereo not drawn) [Example 734, 3-(5-(2-cyclopropyl-5-phenyloxazol-4-yl)-1-oxoisoindolin-2-yl)piperidine-2,6-dione] | – | – | – | – | – | – | C (C = 0-10% remaining) | < 25 | ≥ 25 | F (F = >75-100% remaining) |
| O=C1CCC(N2Cc3cc(-c4nc(C(F)F)oc4-c4ccccc4)ccc3C2=O)C(=O)N1 (stereo not drawn) [Example 735, 3-(5-(2-(difluoromethyl)-5-phenyloxazol-4-yl)-1-oxoisoindolin-2-yl) piperidine-2,6-dione] | – | – | – | – | – | – | C (C = 0-10% remaining) | < 25 | < 25 | E (E = >25-75% remaining) |
